Laboratory results reported in patent US20200018743A1, “MINI-CANCERS UTILIZATION FOR PERSONALIZED CANCER DRUG REGIMENS” (THE JOHNS HOPKINS UNIVERSITY, priority 2017, published 2020).
Entries after “also recorded” stand apart in the source; their conditions may differ. Where two headings read alike, the source gives them in different places. Starred links: 1 amine or outer side, 2 acyl side, 3 side chain; linkers in the order of their positions; H or OH if unused. Positions of bridges follow the written chain, without caps; N, C: chain ends. Non-standard residues stand in square brackets, D forms with d. Residues, ends and D or L forms follow the SMILES beside them. Chains are numbered I, II in the order given. Actinocin(9to1) = Cc1c2oc3c(C)ccc(C(=O)[*:1])c3nc-2c(C(=O)[*:2])c(N)c1=O; NMeV = CN[C@H](C(=O)O)C(C)C; Sar = CNCC(=O)O

Experiments:
[1] = test system: CCA8 sister CCA PDO lines; experiment: 129-drug panel on the 6 sister PDO lines of CCA8; type: cell-based, human
Text: (§1) This intra tumor functional heterogeneity was investigated by calculating the standard deviation of a drug response across all PDO lines established from a patient tumor. […] The inventors chose one of the cancer specimens (CCA8) for further in-depth studies of intra-tumor functional heterogeneity and the identification of its drivers. […] To visualize this phenomenon, we calculated the standard deviation of each drug effect across the 6 PDOs (FIG. 20D). […] To this end, we first chose drugs that induced 30% or less viability in at least one of the 6 sister CCA PDO lines when tested at a 10 uM concentration. […] Of note, there is no known genetic alteration (mutational or otherwise) to predict the response of human cancers to proteasome inhibitors.
(§2) PDOs were plated in 96-well or 384-well plates and cultured for 3 days. Next, media was changed with drug-containing media. The initial screen was performed at a concentration of 10 uM. After 4 days, viability was determined in each well with Cell TiterGlo (Cat #: G7572, Promega, Wis.) following the manufacturer's instruction. […] was measured with a plate reader (Perkin-Elmer EnVision Plate Reader). Drugs that induced less than 50% viability were chosen for future studies.

[2] = test system: 27 liver cancer PDO lines; experiment: High throughput screening of NCI VII 129-drug panel on 27 liver cancer PDO lines (CellTiter-Glo); type: cell-based, human; details: for effectiveness across the cohort of primary liver mini-cancers / all 27 liver cancer PDO lines: 10 uM, CellTiter-Glo; for inter patient effect (mean cell viability per patient cancer specimen): across the 5 patients' cancers
Text: To pick out inter patient divergent drugs (i.e., drugs with discordant effect across the 5 patients), we calculated the mean cell viability per patient cancer specimen by averaging the effect of the drugs across all PDO lines established for the same patient. This mean cell viability per patient is a measure of how the tumor, as a whole, responds to a certain drug. Next, we calculated the standard deviation of the 5 means (one per patient) and ordered the data in decreasing order of the standard deviation. […] To further visualize the inter-patient divergence of drug effects, the inventors constructed a heat map of drug responses per each patient (utilizing the mean cell viability over all clones from each patient, FIG. 20B).
as §1
Take out Matrigel from −20 C and keep at 4 C overnight. Also keep pipette tips at 4 C overnight. Count cells. Mix cells with Matrigel so that you have 200 cells per uL of Matrigel. […] Plate 2 rows, then stop. Wait till the Matrigel is solid. Then add 100 uL of growth passage media. Then continue till all plate is filled up with cells. Place plate into incubator. Take picture with white light. After 4 days replace the media with media containing drugs (90 uL media+10 uL drug work solution). Use a multi-pipette.
as §2

CCA PDO = experiment: Drug testing on a CCA PDO line read by white light / bright field images; type: cell-based, human; details: for effect on PDO (shape, number or size of cystic PDO structures): 9-drug library, 10 uM, white light images; for effect on PDO growth (cytocidal / cytostatic): over 96 hours
Protocol: In preliminary studies, the inventors have obtained resection cancer tissue from 10 CCA patients. […] Pilots experiments were performed with a 9-drug library, at a standard HT screening drug concentration of 10 uM. For positive control, the inventors used 10% Triton X, while for negative control the inventors used DMSO at same concentration used to dissolve drugs. […] As proof of concept, the inventors then expanded to the 1,600 drug JHCCL Hopkins library (data not shown). […] This scale-up required a reproducible and accurate read out. We chose CellTiter-Glo (Promega), an ATP-based cytotoxicity assay that quantifies metabolically active cells. […] Next, the inventors sought to determine IC50s. […] Next, the inventors performed whole exome sequencing on a subset of these CCA PDOs. […] The inventors next performed pilot trials with high-content imaging. We utilized DRAQ5 (red) to stain nuclei and YOYO-1 (green in FIG. 9) to stain dead cells. In this experiment, we treated a CCA PDO culture with Gemcitabine, at concentrations from 10 to 0.1 uM. […] FIG. 10 is a representative 100× Hematoxylin and Eosin image of a PDX tumor.
Initial drug testing experiments were performed on one PDO line, with a 9-drug library, at a standard HT screening drug concentration of 10 uM. For these experiments, we utilized a CCA PDO line. For positive control, we used 10% Triton X, while for negative control we used DMSO […] same concentration used to dissolve drugs. For these experiments, we utilized white light images and equated the killing effect of drugs into shrinking of PDO cystic structures. […] To this end, we tested the 5 chemotherapy agents typically used in CCA patients, as well as several combinations (FIG. 18C). […] Next, we sought a fast, reproducible and relatively inexpensive read out of cell death (or inhibited proliferation). We chose CellTiter-Glo (Promega), which is an ATP-based cytotoxicity assay that quantifies metabolically active cells. […] Therefore, we have used CellTiter-Glo for all subsequent experiments. […] By using CellTiter-Glo, we quantified the viability of cells treated with single agents as well as combinations (as in FIG. 18C).

HCC = HCC patients; cited from earlier work

Row | Compound | killing effect / activity across the 6 PDO lines ([1]; CCA8, 10 uM) | effectiveness across the cohort of primary liver mini-cancers / all 27 liver cancer PDO lines [2] | other results
1 | O=C(/C=C/c1cccc(S(=O)(=O)Nc2ccccc2)c1)NO [Belinostat] | moderate activity in 1/6 PDO lines and generally poor activity in 5/6 | – | –
2 | CC(C)C[C@H](NC(=O)[C@H](CCc1ccccc1)NC(=O)CN1CCOCC1)C(=O)N[C@@H](Cc1ccccc1)C(=O)N[C@@H](CC(C)C)C(=O)[C@@]1(C)CO1 [Carfilzomib, carifilzomib] | effective across the 6 PDO lines | pan-effective | –
3 | Cc1cc(Nc2ncc(Cl)c(Nc3ccccc3S(=O)(=O)C(C)C)n2)c(OC(C)C)cc1C1CCNCC1 [Ceritinib] | high activity in 3/6 and almost no activity in the rest 3/6 PDO lines | – | –
4 | N.N.[Cl][Pt][Cl] [Cisplatin] | uniformly ineffective | – | effect on PDO (shape, number or size of cystic PDO structures) (CCA PDO): no effect; also recorded: did not appear to have any effect; effect on PDO (shape, number or size of cystic PDO structures) (CCA PDO; listed as cisplatin): no effect on the round shape of PDO; effectiveness in CCAs tested (CCA PDO; all 6 CCAs tested): ineffective; effect on PDO growth (cytocidal / cytostatic) (CCA PDO): ineffective; also recorded: unaffected PDO growth
5 | Cc1c2oc3c(C)ccc(C(=O)N[C@@H]4C(=O)N[C@H](C(C)C)C(=O)N5CCC[C@H]5C(=O)N(C)CC(=O)N(C)[C@@H](C(C)C)C(=O)O[C@@H]4C)c3nc-2c(C(=O)N[C@@H]2C(=O)N[C@H](C(C)C)C(=O)N3CCC[C@H]3C(=O)N(C)CC(=O)N(C)[C@@H](C(C)C)C(=O)O[C@@H]2C)c(N)c1=O [Dactinomycin, dactinomycin] (I: T[dV]P[Sar][NMeV] / II: T[dV]P[Sar][NMeV]; ester I:1-I:C, II:1-II:C; linker I:N-II:N via Actinocin(9to1)) | – | – | inter patient effect (mean cell viability per patient cancer specimen) [2]: work well in just 1 cancer
6 | COc1cccc2c1C(=O)c1c(O)c3c(c(O)c1C2=O)C[C@@](O)(C(=O)CO)C[C@@H]3O[C@H]1C[C@H](N)[C@H](O)[C@H](C)O1 [Doxorubicin] | – | – | inter patient effect (mean cell viability per patient cancer specimen) [2]: work in majority of cancers, but not in all of them
7 | COc1cccc2c1C(=O)c1c(O)c3c(c(O)c1C2=O)C[C@@](O)(C(=O)CO)C[C@@H]3O[C@H]1C[C@H](N)[C@@H](O)[C@H](C)O1 [Epirubicin] | wide response | – | –
8 | Nc1ccn([C@@H]2O[C@H](CO)[C@@H](O)C2(F)F)c(=O)n1 [Gemcitabine] | moderate activity in 1/6 and poor activity in 5/6 PDO lines | – | effect on PDO (shape, number or size of cystic PDO structures) (CCA PDO): moderate cytostatic but not a cytocydal effect; effect on PDO growth (cytocidal / cytostatic) (CCA PDO): moderate cytostatic, but not cytocidal effect; effect on PDO growth (cytocidal / cytostatic) (CCA PDO; listed as Gemicitabine): partially effective; inter patient effect (mean cell viability per patient cancer specimen) [2]: work in majority of cancers, but not in all of them
9 | CC(=O)[C@]1(O)Cc2c(O)c3c(c(O)c2[C@@H](O[C@H]2C[C@H](N)[C@H](O)[C@H](C)O2)C1)C(=O)c1ccccc1C3=O [Idarubicin, idarubicin] | effective across the 6 PDO lines | pan-effective | –
10 | CC[C@H](Nc1ncnc2[nH]cnc12)c1nc2cccc(F)c2c(=O)n1-c1ccccc1 [Idelalisib] | uniformly ineffective | – | –
11 | CC(C)C[C@H](NC(=O)CNC(=O)c1cc(Cl)ccc1Cl)B(O)O [Ixazomib, ixazomib] | effective across the 6 PDO lines | pan-effective | –
12 | CS(=O)(=O)CCNCc1ccc(-c2ccc3ncnc(Nc4ccc(OCc5cccc(F)c5)c(Cl)c4)c3c2)o1 [Lapatinib] | uniformly ineffective | – | –
13 | N#Cc1ccc(C(c2ccc(C#N)cc2)n2cncn2)cc1 [Letrozole] | uniformly ineffective | – | –
14 | N[C@@H](Cc1ccc(N(CCCl)CCCl)cc1)C(=O)O [Melphalan] | uniformly ineffective | – | –
15 | CO[C@@]12[C@H](COC(N)=O)C3=C(C(=O)C(C)=C(N)C3=O)N1C[C@@H]1N[C@@H]12 [Mitomycin, mitomycin] | – | – | killing effect / activity across the 6 PDO lines [1]: effective across the 6 PDO lines
16 | COC(=O)C[C@](O)(CCCC(C)(C)O)C(=O)O[C@@H]1C(OC)=C[C@]23CCCN2CCc2cc4c(cc2[C@H]13)OCO4 [Omacetaxine, omacetaxine] | wide response | – | –
17 | Cc1[nH]c2ccccc2c1CCNCc1ccc(/C=C/C(=O)NO)cc1 [Panobinostat, panobinostat] | – | pan-effective | –
18 | C/C=C1\NC(=O)[C@H]2CSSCC/C=C/[C@H](CC(=O)N[C@H](C(C)C)C(=O)N2)OC(=O)[C@H](C(C)C)NC1=O [Romidepsin, romidepsin] | effective across the 6 PDO lines | pan-effective | –
19 | CNC(=O)c1cc(Oc2ccc(NC(=O)Nc3ccc(Cl)c(C(F)(F)F)c3)cc2)ccn1 [Sorafenib] | – | – | improvement of survival (HCC): 3 months; side effects (HCC): severe side effects; inter patient effect (mean cell viability per patient cancer specimen) [2]: work in majority of cancers, but not in all of them
20 | O=C1CCC(N2C(=O)c3ccccc3C2=O)C(=O)N1 (stereo not shown) [Thalidomide] | uniformly ineffective | – | –
21 | CCC1=C[C@@H]2CN(C1)Cc1c([nH]c3ccccc13)[C@@](C(=O)OC)(c1cc3c(cc1OC)N(C)[C@H]1[C@@](O)(C(=O)OC)[C@H](OC(C)=O)[C@]4(CC)C=CCN5CC[C@]31[C@@H]54)C2 [Vinorelbine] | – | – | effect on PDO (shape, number or size of cystic PDO structures) (CCA PDO): effective
22 | COc1cccc2c1C(=O)c1c(O)c3c(c(O)c1C2=O)C[C@@](O)(C(C)=O)C[C@@H]3O[C@H]1C[C@H](N)[C@H](O)[C@H](C)O1 [daunorubicin] | – | pan-effective | –
23 | CC[C@@]1(O)C(=O)OCc2c1cc1n(c2=O)Cc2cc3c(CN(C)C)c(O)ccc3nc2-1 [topotecan] | – | pan-effective | –
24 | CC[C@]1(O)C[C@H]2CN(CCc3c([nH]c4ccccc34)[C@@](C(=O)OC)(c3cc4c(cc3OC)N(C=O)[C@H]3[C@@](O)(C(=O)OC)[C@H](OC(C)=O)[C@]5(CC)C=CCN6CC[C@]43[C@@H]65)C2)C1 [vincristine] | – | – | inter patient effect (mean cell viability per patient cancer specimen) [2]: work well in just 1 cancer
25 | plicamycin | effective across the 6 PDO lines | pan-effective | –
